Here are results for one molecule from US10575537B2, “Saury Maillard peptide and its preparation method and application” (South China University of Technology, priority 2015, dated 2020).

Molecules are shown by their SMILES. Marks after values point to notes of the source that are not given here.

Experiment [1] deals with serum adenosine deaminase (ADA). The experiment in a line: serum ADA activity in rats with hyperuricemia induced by oteracil potassium. Type of experiment: in vivo, rat. Conditions: 30 days, peptide samples 200 mg/kg, allopurinol 50 mg/kg. The source says: (§1) As the index in the following examples, the experimental method of therapeutic effects of the peptide samples on the oteracil potassium-induced hyperuricemia in rats was as follow:
(§2) Animals: 140 SPF grade SD male rats, weight 200±20 g, purchased from Laboratory Animal Center of Guangzhou University of Chinese Medicine.
(§3) Animal grouping and modeling: Taking a total of 140 healthy male SD rats, and randomly dividing them into a normal control group (20 rats) and a model group (120 rats); the model group rats were gavage with oteracil potassium (daily dose: 2 g/kg) for 7 days, then the rat were anesthetized via intraperitoneally injecting 3% pentobarbital sodium (30 mg/kg) after the last administration, their blood was taken from conjunctival (0.5 ml), then centrifuging at 4° C. and 3000 r/min for 15 min, and taking the upper serum to determine the uric acid content, and the rats in the normal control group were treated with a constant volume of solvent by intragastric administration. The rats with the uric acid content above 110 μmol/L were identified to be successful in modeling. […]

The target of experiment [2] is T1, serum xanthine oxidase (XOD) (Rattus norvegicus, UniProt P22985).
T1 construct: Taking 100 μl of serum for determination of XOD; from tissue; host or cells: serum of SD male rats
The experiment in a line: serum XOD activity in rats with hyperuricemia induced by oteracil potassium. The format is in vivo. The conditions noted are these: 30 days, peptide samples 200 mg/kg, allopurinol 50 mg/kg.
Description: as §1, §2, §3

Experiment [3] relates to rats with hyperuricemia induced by oteracil potassium. The experiment in a line: serum creatinine and urea nitrogen content in rats with hyperuricemia induced by oteracil potassium. Conditions: 30 days, peptide samples 200 mg/kg, allopurinol 50 mg/kg. The format is in vivo, rat.
Description: as §1, §2, §3

Experiment [4] has the same test system. Nature of the experiment: serum uric acid content in rats with hyperuricemia induced by oteracil potassium. The format is in vivo, rat.
Description: as §1, §2
Animal grouping and modeling: Taking a total of 140 healthy male SD rats, and randomly dividing them into a normal control group (20 rats) and a model group (120 rats); the model group rats were gavage with oteracil potassium (daily dose: 2 g/kg) for 7 days, then the rat were anesthetized via intraperitoneally injecting 3% pentobarbital sodium (30 mg/kg) after the last administration, their blood was taken from conjunctival (0.5 ml), then centrifuging at 4° C. and 3000 r/min for 15 min, and taking the upper serum to determine the uric acid content, and the rats in the normal control group were treated with a constant volume of solvent by intragastric administration. The rats with the uric acid content above 110 μmol/L were identified to be successful in modeling.
The rats successful in modeling, according to the uric acid content, was randomly dividing into a model control group (constant volume solvent), a tested peptide sample group (200 mg/kg) and an allopurinol group (50 mg/kg) at 14 rats per group, and the rats were gavage with oteracil potassium (daily dose: 2 g/kg) at a dose of 10 ml/kg, with the model rats treated with a constant volume of distilled water. Administering 3% pentobarbital sodium (30 mg/kg) for 50 min at the end of administering the above-mentioned peptide samples for 10 days and 20 days, drawing the conjunctival blood (0.5 ml), and determining the serum uric acid content; after the 30th day of treatment with anti-gout peptides, drawing the celiac artery blood 5 ml after anesthesia with 3% pentobarbital sodium, and determining the content of serum creatinine and urea nitrogen in addition to determining the serum uric acid content.
Determination of serum uric acid: using the tungstic acid method and strictly following the determination method from the kit instructions.
Statistical treatment: all data is presented as “mean±standard deviation”, t test was performed to determine the significant difference between samples at the 95% confidence interval using SPSS 19.0 software.

T1 sequence (P22985 whole entry): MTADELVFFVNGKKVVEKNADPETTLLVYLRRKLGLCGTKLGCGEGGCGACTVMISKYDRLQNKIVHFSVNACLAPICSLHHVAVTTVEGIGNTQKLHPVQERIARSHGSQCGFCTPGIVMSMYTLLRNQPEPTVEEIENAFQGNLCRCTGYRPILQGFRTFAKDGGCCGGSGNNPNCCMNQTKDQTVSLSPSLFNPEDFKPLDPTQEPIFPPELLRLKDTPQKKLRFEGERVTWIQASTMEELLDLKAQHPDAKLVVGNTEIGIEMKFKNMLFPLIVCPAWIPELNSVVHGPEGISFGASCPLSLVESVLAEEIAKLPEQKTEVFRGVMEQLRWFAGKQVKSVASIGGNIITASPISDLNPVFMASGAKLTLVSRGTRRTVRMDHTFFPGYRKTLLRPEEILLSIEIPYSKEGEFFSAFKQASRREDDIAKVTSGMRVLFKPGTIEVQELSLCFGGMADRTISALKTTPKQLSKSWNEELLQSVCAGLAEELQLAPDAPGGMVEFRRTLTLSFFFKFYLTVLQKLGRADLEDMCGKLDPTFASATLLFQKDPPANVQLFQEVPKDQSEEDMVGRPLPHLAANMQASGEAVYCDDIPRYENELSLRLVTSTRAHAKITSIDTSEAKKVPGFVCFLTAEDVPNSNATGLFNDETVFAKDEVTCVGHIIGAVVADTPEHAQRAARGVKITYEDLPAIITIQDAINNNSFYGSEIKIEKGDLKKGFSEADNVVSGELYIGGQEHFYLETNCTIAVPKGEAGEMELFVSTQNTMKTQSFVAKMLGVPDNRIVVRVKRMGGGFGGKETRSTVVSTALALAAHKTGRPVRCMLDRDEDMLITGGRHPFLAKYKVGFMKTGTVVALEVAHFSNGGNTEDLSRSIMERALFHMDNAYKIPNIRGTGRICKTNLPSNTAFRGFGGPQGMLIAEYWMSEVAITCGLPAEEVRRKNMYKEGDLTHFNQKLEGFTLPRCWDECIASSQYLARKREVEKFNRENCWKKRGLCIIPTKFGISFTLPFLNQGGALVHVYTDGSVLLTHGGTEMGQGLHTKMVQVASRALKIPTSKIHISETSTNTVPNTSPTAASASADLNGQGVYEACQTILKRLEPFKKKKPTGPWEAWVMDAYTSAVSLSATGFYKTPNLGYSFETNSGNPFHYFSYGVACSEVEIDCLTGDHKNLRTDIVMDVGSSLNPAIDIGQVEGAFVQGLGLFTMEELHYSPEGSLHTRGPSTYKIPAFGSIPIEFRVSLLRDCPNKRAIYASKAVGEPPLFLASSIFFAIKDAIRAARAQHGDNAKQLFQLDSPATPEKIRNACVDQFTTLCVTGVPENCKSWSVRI

As for `Oc1ncnc2[nH]ncc12` [Allopurinol], the ADA in experiment [1] is on record as 12.28 ± 7.88^b U/ml. In addition, in experiment [2], the XOD is reported as 8.61 ± 2.46^b U/L. Further, the Creatinine in experiment [3] is 41.8 ± 13.2^b μmol/L. The “effect on serum uric acid content, in words” value in experiment [4] (hyperuricemia model rats, compared with model group) is “significantly decreased (p<0.01)”. For the same molecule, in experiment [4] (serum, SD male rats after modeling with oteracil potassium 2 g/kg daily, baseline before administration), the “Uric acid value, before administration” value is 230.4 ± 19.1 µmol/L. For the same molecule, the “Uric acid value, treatment for 10 days” value in experiment [4] (serum, gavage, peptide samples 200 mg/kg, allopurinol 50 mg/kg, 10 days) is 89.5 ± 22.4^b μmol/L. Moreover, the “Uric acid value, treatment for 20 days” value in experiment [4] (serum, gavage, peptide samples 200 mg/kg, allopurinol 50 mg/kg, 20 days) is 94.5 ± 13.9^b μmol/L. Besides, in experiment [4] (serum, gavage, peptide samples 200 mg/kg, allopurinol 50 mg/kg, 30 days), the “Uric acid value, treatment for 30 days” value is 92.8 ± 20.9^b μmol/L.
